Laboratory results: ChEMBL document CHEMBL1145757, “QSAR study on solubility of alkanes in water and their partition coefficients in different solvent systems using PI index” (Bioorg Med Chem Lett, 2003)
≈ marks a conversion by molar mass, not a printed value.

Legend:
physchem [1] = conditions: octanol/water
Description: Partition coefficient (logP)

physchem [2] = test: physchem
Description: Solubility in water was determined; values expressed as -log

[3] = octanol/water
Description: Partition coefficient (logP)

[4] = Partition coefficient in water-cyclohexane was determined; type: ADME
[5] = water/hexadecane
Description: Partition coefficient in water-hexadecane (P16) was determined

[6] = water/alkane
Description: Partition coefficient in alkanes was determined

CCCCCCCCCCCCCC
logP (physchem [1]): 8 | solubility (physchem [2]; water): 0.011 µM (≈ 0.00218 µg/mL)

CCCC [BUTANE]
logP [3]: 2.89 | Log Pcyc [4]: 3.62 | solubility (physchem [2]; buffer): 2690 µM (≈ 156 µg/mL)

CCCCCCCCCC [DECANE]
Log P16 [5]: 7.01 | logP (physchem [1]): 6.34 | solubility (physchem [2]; water): 0.105 µM (≈ 0.0149 µg/mL)

CCCCCCCCCCCC [DODECANE]
solubility (physchem [2]; buffer): 0.0214 µM (≈ 0.00364 µg/mL)

CCCCCCC [HEPTANE]
Log P16 [5]: 5.14 | logP (physchem [1]): 4.5 | solubility (physchem [2]; water): 29.5 µM (≈ 2.96 µg/mL)

CCCCCCCCCCCCCCCC [HEXADECANE]
logP [3]: 9.57 | solubility (physchem [2]; water): 0.00398 µM (≈ 0.000902 µg/mL)

CCCCCC [HEXANE]
logP [3]: 3.9 | solubility (physchem [2]; buffer): 145 µM (≈ 12.5 µg/mL)

C [METHANE]
Log Pcyc [4]: 1.33 | Log P16 [5]: 1.14 | Log Palk [6]: 1.37

CCCCCCCCC [NONANE]
Log P16 [5]: 6.49 | logP (physchem [1]): 5.65 | solubility (physchem [2]; buffer): 1.32 µM (≈ 0.169 µg/mL)

CCCCCCCC [OCTANE]
Log P16 [5]: 5.79 | logP (physchem [1]): 5.15 | solubility (physchem [2]; water): 5.75 µM (≈ 0.657 µg/mL)

CCCCC [PENTANE]
Log Pcyc [4]: 4.27 | Log P16 [5]: 3.87 | Log Palk [6]: 4.06 | solubility (physchem [2]; water): 661 µM (≈ 47.7 µg/mL)
